Experimental data as given in patent publication US12448388B2, “PRMT5 inhibitors and uses thereof” (Gilead Sciences, Inc., priority 2023, dated 2025).

Experiments:
[1] = test system: LU99 (lung, giant cell carcinoma; MTAP-Deleted); assay: In vitro cell viability assay (CellTiter-Glo, 9 days), LU99; format: cell-based; settings: Homo sapiens, Lu-99, 216 h, 9-day treatment
Experimental: Some Compounds of the Disclosure were tested in Calu-6 (Vendor: ATCC; Cat #HTB-56; Description: lung, adenocarcinoma), LU99 (Vendor: JCRB; Cat #JCRB0080; Description: lung, giant cell carcinoma), SW780 (Vendor: ATCC; Cat #CRL-2169; Description: bladder, urothelial carcinoma), and BxPC-3 (Vendor: ATCC; Cat #CRL-1687; Description: pancreas, adenocarcinoma) cellular viability assays according to the general protocol. Seeded cells into 96-well plate and incubated overnight. Seeded an additional 10 wells per cell line in an additional 96-well plate for assessing Time Zero luminescence and incubated overnight. To treatment plates, added compounds into each well using Tecan D300e dispenser (nine three-fold dilutions starting at […]) and incubated for 9 days. Time Zero (no compound treatment, luminescence assessed on day 1) and 9-day treatment (luminescence assessed on day 10) plates were assessed using the same CellTiter-Glo® substrate protocol. Thawed CellTiter-Glo® Buffer and lyophilized CellTiter-Glo® substrate and equilibrated to room temperature prior to use. Transferred 100 ml CellTiter-Glo® Buffer into amber bottle containing CellTiter-Glo® substrate to reconstitute the lyophilized enzyme/substrate mixture. For Time Zero and 9-day treatment plates, removed all plating media. Added 100 μl fresh media/well. Added 100 μl CellTiter-Glo® Reagent per well. Mixed contents for 10 min on an orbital shaker to lyse cells. Recorded luminescence with Perkin Elmer Envision 2105 machine. Analyzed the data with GraphPad software.

hERG ion channel = molecular target: T1, hERG ion channel (Homo sapiens, UniProt Q12809); assay: hERG assay (automated patch clamp, QPatch HT); format: cell-based; settings: HEK293 hERG, * = accurate hERG measurement may be limited by compound solubility
T1 construct: host or cells: HEK293
Experimental: Cell lines and cell culture: The HEK293 cell line stably expressing the hERG ion channel was provided from Charles River laboratories. Cells were maintained in tissue culture incubators per Charles River Laboratories SOP. Stocks were maintained in cryogenic storage. HEK293 cells were stably transfected with hERG cDNA.
Automated Patch Clamp Procedures: In preparation for a recording session, intracellular solution was loaded into the intracellular compartments of the QPlate and cell suspension was pipetted into the extracellular compartments. After establishment of a whole-cell configuration, membrane currents were recorded using up to 48 parallel patch clamp amplifiers in the QPatch HT® system. The current records were sampled at 2000 Hz and low-pass Bessel filtered at 400 Hz.
Valid whole-cell recordings met the following criteria: • 1. Membrane resistance ≥200 MΩ. • 2. Leak current 25% channel current or subtracted.
hERG Test Procedures: Onset and block of hERG current was measured using a stimulus voltage pattern consisting of a 500 ms prepulse to −40 mV (leakage subtraction), a 2-second activating pulse to +40 mV followed by a 2-second test pulse to −40 mV. The pulse pattern was repeated continuously at 10 s intervals from a holding potential of −80 mV. Peak tail current was measured during the −40 mV test pulse. Leakage current was calculated from the current amplitude evoked by the −40 mV prepulse and subtracted from the total membrane current record.
Data Analysis: Data acquisition and analysis were performed using the QPatch Assay Software (Sophion Bioscience A/S, Denmark). Steady state was defined by the limiting constant rate of change with time (linear time dependence). The steady state before and after test article application were used to calculate the percentage of current inhibited at each concentration. Run down, a time-dependent reduction of current amplitude, may be compensated for in the QPatch Assay Software using standard system tools. Concentration-response data was fit to an equation of the following form: […]
Where [Test] is the concentration of test compound, IC50 is the concentration of the test compound producing half-maximal inhibition, N is the Hill coefficient and % Block is the percentage of current inhibited at each concentration of the test article. Nonlinear least squares fits will be solved with the Solver add-in for Excel 2000 or later (Microsoft, Redmond, WA).

T1 sequence (Q12809 whole entry): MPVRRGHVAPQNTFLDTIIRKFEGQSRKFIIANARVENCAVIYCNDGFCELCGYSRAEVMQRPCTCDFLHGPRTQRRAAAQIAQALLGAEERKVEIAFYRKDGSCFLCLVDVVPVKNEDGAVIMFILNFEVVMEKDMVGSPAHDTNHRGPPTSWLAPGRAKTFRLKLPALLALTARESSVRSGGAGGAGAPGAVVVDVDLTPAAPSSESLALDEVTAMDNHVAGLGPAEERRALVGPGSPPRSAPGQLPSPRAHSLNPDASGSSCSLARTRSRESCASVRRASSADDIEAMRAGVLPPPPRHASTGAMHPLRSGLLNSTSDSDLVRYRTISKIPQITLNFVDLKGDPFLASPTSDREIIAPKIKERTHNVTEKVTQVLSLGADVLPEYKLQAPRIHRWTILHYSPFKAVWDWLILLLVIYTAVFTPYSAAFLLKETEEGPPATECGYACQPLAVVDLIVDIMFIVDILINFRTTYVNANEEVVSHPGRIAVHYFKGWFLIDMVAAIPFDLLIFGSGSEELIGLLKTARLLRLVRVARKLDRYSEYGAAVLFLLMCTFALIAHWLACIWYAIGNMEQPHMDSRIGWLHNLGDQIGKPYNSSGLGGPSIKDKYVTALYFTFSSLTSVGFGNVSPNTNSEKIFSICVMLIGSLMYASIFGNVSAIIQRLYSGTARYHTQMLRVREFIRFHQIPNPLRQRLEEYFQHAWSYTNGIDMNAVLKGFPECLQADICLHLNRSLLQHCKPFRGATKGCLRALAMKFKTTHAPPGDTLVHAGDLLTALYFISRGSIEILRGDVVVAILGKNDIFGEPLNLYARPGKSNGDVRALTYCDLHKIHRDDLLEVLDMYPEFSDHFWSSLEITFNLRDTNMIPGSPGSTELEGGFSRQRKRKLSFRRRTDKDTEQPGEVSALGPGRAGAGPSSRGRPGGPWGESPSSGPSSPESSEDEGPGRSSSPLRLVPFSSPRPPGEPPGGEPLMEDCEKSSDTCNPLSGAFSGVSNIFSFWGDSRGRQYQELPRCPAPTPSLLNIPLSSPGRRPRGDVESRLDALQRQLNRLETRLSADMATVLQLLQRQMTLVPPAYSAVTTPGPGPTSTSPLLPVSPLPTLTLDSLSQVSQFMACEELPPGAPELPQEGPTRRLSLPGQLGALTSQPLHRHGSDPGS

Structure (SMILES)	GI50 [1]	IC50 (hERG ion channel)
Nc1nc2cnc(C(=O)N3CC4(CC4)C[C@@H]4Oc5cc(C(F)(F)F)ccc5[C@@H]43)cc2n2cncc12 [Ff-648, (4-aminoimidazo[1,5-a]pyrido[3,4-e]pyrazin-8-yl)((4aS,9bS)-7-(trifluoromethyl)-4a,9b-dihydro-2H-spiro[benzofuro[3,2-b]pyridine-3,1′-cyclopropan]-1(4H)-yl)methanone]	9 nM	
Nc1nc2cnc(C(=O)N3CC[C@H]4C[C@@H]3c3c(F)cc(C(F)(F)F)cc3O4)cc2n2cncc12 (single isomer, unassigned) [Ff-694]		16200 nM
Nc1nc2cc(F)c(C(=O)N3CCC[C@@H]4Oc5cc(C(F)(F)F)ccc5[C@@H]43)cc2n2cncc12 [Ff-104, (4-amino-7-fluoroimidazo[1,5-a]quinoxalin-8-yl)((4aS,9bS)-7-(trifluoromethyl)-3,4,4a,9b-tetrahydrobenzofuro[3,2-b]pyridin-1(2H)-yl)methanone]	4 nM	14200 nM
Cc1ncc2c(N)nc3cnc(C(=O)N4CCC[C@@H]5Oc6cc(OC(F)(F)F)ccc6[C@@H]54)cc3n12 [Ff-340, (4-amino-1-methylimidazo[1,5-a]pyrido[3,4-e]pyrazin-8-yl)((4aS,9bS)-7-(trifluoromethoxy)-3,4,4a,9b-tetrahydrobenzofuro[3,2-b]pyridin-1(2H)-yl)methanone]	17 nM	
Cc1ncn2c1c(N)nc1cnc(C(=O)N3CCC[C@@H]4Oc5cc(C(F)(F)F)ccc5[C@@H]43)cc12 [Ff-499, (4-amino-3-methylimidazo[1,5-a]pyrido[3,4-e]pyrazin-8-yl)((4aS,9bS)-7-(trifluoromethyl)-3,4,4a,9b-tetrahydrobenzofuro[3,2-b]pyridin-1(2H)-yl)methanone]		17500 nM
Nc1nc2cc(F)c(C(=O)N3CCO[C@@H]4Cc5cc(C(F)(F)F)ccc5[C@@H]43)cc2n2cncc12 (single isomer, unassigned) [Ff-82]		> 30000 nM
C[C@@H]1CN(C(=O)c2cc3c(cc2F)nc(N)c2cncn23)[C@H]2c3cc(F)c(OC(F)(F)F)cc3C[C@H]2O1 (single isomer, unassigned) [Ff-197]		11900 nM

Continued by falling GI50 [1], values first:

GI50 [1]	Structure (SMILES)	IC50 (hERG ion channel)
19 nM	C[C@H]1CN(C(=O)c2cc3c(cc2F)nc(N)c2cncn23)[C@H]2c3ccc(C(F)(F)F)cc3C[C@H]2O1 (single isomer, unassigned) [Ff-81]	27700 nM
13 nM	Nc1nc2cnc(C(=O)N3CCC[C@@H]4Oc5cc(OC(F)(F)F)ccc5[C@@H]43)cc2n2cncc12 [Ff-341, (4-aminoimidazo[1,5-a]pyrido[3,4-e]pyrazin-8-yl)((4aS,9bS)-7-(trifluoromethoxy)-3,4,4a,9b-tetrahydrobenzofuro[3,2-b]pyridin-1(2H)-yl)methanone]	
11 nM	C[C@@H]1CN(C(=O)c2cc3c(cc2F)nc(N)c2cncn23)[C@H]2c3ccc(OC(F)(F)F)cc3C[C@H]2O1 (single isomer, unassigned) [Ff-183]	
10 nM	Nc1nc2cnc(C(=O)N3CCC[C@@H]4Oc5cc(OC(F)(F)F)cc(F)c5[C@@H]43)cc2n2cncc12 (single isomer, unassigned) [Fg-55]	6200 nM
8 nM	Nc1nc2ccc(C(=O)N3CCC[C@@H]4Oc5cc(C(F)(F)F)ccc5[C@@H]43)cc2n2cncc12 [Ff-111, (4-aminoimidazo[1,5-a]quinoxalin-8-yl)((4aS,9bS)-7-(trifluoromethyl)-3,4,4a,9b-tetrahydrobenzofuro[3,2-b]pyridin-1(2H)-yl)methanone]	6700 nM
7 nM	Nc1nc2cnc(C(=O)N3CCC[C@@H]4Oc5cc(C(F)(F)F)ccc5[C@@H]43)cc2n2cncc12 [Ff-110, (4-aminoimidazo[1,5-a]pyrido[3,4-e]pyrazin-8-yl)((4aS,9bS)-7-(trifluoromethyl)-3,4,4a,9b-tetrahydrobenzofuro[3,2-b]pyridin-1(2H)-yl)methanone]	8470 nM
6 nM	Nc1nc2cnc(C(=O)N3CCC[C@@H]4Oc5cc(C(F)(F)F)cc(F)c5[C@@H]43)cc2n2cncc12 (single isomer, unassigned) [Fg-53]	9950 nM
